Assay results reported in patent US20110306071A1, “Compositions and Methods for Identifying Substrate Specificity of Inhibitors of Gamma Secretase” (ELAN PHARMACEUTICALS, INC., priority 2007, published 2011).

What was measured:
gamma secretase = assay: Aβ production from C99GVP and mutant or chimeric substrates in transfected HEK cells (ELISA, IP/Western blot); type: cell-based, Human; details: for drop of Aβ40: Aβ40 ELISA, FIG. 9C; for reduction in total Aβ: IP/Western blot densitometry, FIG. 9B; for effect on secreted Aβ / Aβ production compared with C99GVP control: FIGS. 8C, 8D, 9B, 9C
Excerpt: Plasmid Construction of JMD Chimeric Substrates: A pcDNA3.1-C99 plasmid similar to the previously described SPA4CT-LE construct (Dyrks, et al., FEBS Lett., 1992; 309: 20-24) was generated by standard PCR techniques. The APP signal peptide was fused to the N-terminus of the C99 fragment via a dipeptide leucine-glutamic acid (LE) linker. The strategy used to generate the pcDNA3.1-C99GVP construct was similar to a previously described method (Karlstrom, H., et al., J. Biol. Chem., 2002; 277: 6763-6766). (See, generally, FIG. 3). Briefly, an AscI site was introduced immediately 3′ of the nucleotides encoding the triple-lysine (K) membrane anchor of C99, where the GVP coding sequence was subsequently inserted in frame (to the C-terminal side of the lysine membrane anchor sequence of C99). […] All three chimeras were constructed by using a two-stage PCR method with two pairs of overlapping primers (for list of primers, see Table I). These chimeric substrates were characterized to assess activity as gamma secretase substrates and subsequent production and secretion of Aβ and AICD (FIGS. 6-7). […] The C99GVP-SLSS quadruple JMD chimera was also constructed with the same PCR method. Point mutations within the luminal juxtamembrane domain (i.e., C99GVP-G25S, S26L, N27S and K28S; FIGS. 2 and 9A-D) were generated using QuikChange (Stratagene) site-directed mutagenesis kit according to the manufacturer's instructions. All cDNAs were verified by sequencing. The Aβ and Aβ-like peptides generated from C99GVP and the various chimeric substrates were numbered with reference to the first N-terminal residue (Asp-1) of the Aβ peptide.
Cell Culture and Transient Transfection: Human embryonic kidney 293 (HEK 293) cells (ATCC) were grown in Dulbecco's Modified Eagle Medium with High Glucose (DMEM, obtained from Gibco/Invitrogen, Cat #11960) supplemented with 10% fetal bovine serum (Hyclone, SV 30014.03) and 50 units/ml penicillin and streptomycin (37° C., 5% CO2). Cells were used at less than passage number 30. At the time of seeding, viability of cells was greater than 95% as determined using a Vi-Cell Analyzer (Beckman-Coulter). Confluence of cells on plates was kept at greater than 95% during all phases of the experiment as determined with a standard tissue culture inverted microscope. All transfections were carried out on 5×10^6 cells in 6-well tissue culture plates (Costar). The following 3 plasmids: pG5E1B-luc, 200 ng (gift from R. Maurer, OHSU); pCMV-β-gal, 100 ng (gift from R. Maurer, OHSU); C99GVP or the various chimeric constructs, 200-400 ng were added together to each well. FuGENE6 reagent (Roche Cat. #11-814443001) was used according to manufacturer's protocol for the transient transfection of adherent cells. Transfected cells were reseeded onto 12 well (2×10^6 cells) and/or 96-well (5×10^4 cells) plates (Costar) 16 h post-transfection; fresh media was added either with or without gamma secretase inhibitors. The cells and conditioned media were harvested 48 h post-transfection for analysis.
Immunoprecipitation (IP) and Western Blot Detection of Aβ: Total Aβ peptides in conditioned medium or cell lysate were immuno-precipitated at 4° C. overnight with 4 μg of the 2H3 antibody, followed by incubation with 50 μl of a 50% protein G-Sepharose (GE Healthcare) slurry for 1 hr and three washes in the same lysis buffer as described above in the Western Blot discussion. Proteins were eluted from the solid-phase immunoprecipitates in Laemmli sample buffer by heating at 70° C. for 5 min and resolved on 10-20% Tris-Tricine SDS-PAGE or the modified Tris-Tricine/8M urea gels (Qi-Takahara, Y., et al., J Neurosci. (2005; 25, 436-445). After transferring onto nitrocellulose membranes (Invitrogen), the membranes were heated to 98° C. for 5 min in PBS, immunostained with the 2H3 antibody and visualized with Super-signal West Pico chemiluminescent substrate (Pierce). Each experiment was repeated at least three times. […]

[1] = system: gamma secretase (secreted Aβ40 and Aβ42); assay: Aβ sandwich ELISA of media from C99GVP or APP transfected HEK cells treated with inhibitors; type: cell-based, Human
Description: Inhibitor Treatment of Transfected HEK Cell: The transition state analogue gamma secretase inhibitor-L685,458 (Sigma) and the peptidomimetic inhibitor-DAPT (Dovey, H. F., et al., J Neurochem., 2001; 76:173-181) were dissolved in DMSO to make 20 mM stocks. Similarly, a number of Elan's series of sulfonamide inhibitors were prepared and used as described herein (see, also FIGS. 11-14). Inhibitors were added to cell cultures (e.g., HEK) at the indicated final concentration, and the treated cells were harvested 48 h post-transfection. The metallo-proteinase inhibitor TAPI-1 (Calbiochem) was used at a final concentration of 40 μM. The Aβ-degrading enzyme inhibitors, Bacitracin (Calbiochem) and phosphoramidon (Calbiochem) were used at final concentration of 1 mg/ml and 40 μM, respectively. All inhibitor experiments were performed in triplicate and repeated at least three times.
ELISAs used to quantify different Aβ species were performed using standard techniques as described above and in (Johnson-Wood, K., et al., Proc. Natl. Acad. Sci. U.S.A., 1997; 94: 1550-1555, incorporated by reference). The Aβ40 and Aβ42 peptides in the samples were captured onto 2G3 or 21F12 antibody coated plates, respectively, and detected with a biotinylated 2H3 antibody. The fluorescence signal generated from a streptavidin-alkaline phosphatase conjugate (Roche) was measured with a CytoFlour microplate reader (Applied Biosystems). Synthetic Aβ40 or Aβ42 peptides (Anaspec) were used to generate standard curves (FIG. 10). All measurements were done in triplicate.
Next, Aβ generation was characterized from C99GVP. Wild type HEK cells and the mock-transfection control secreted little Aβ into the conditioned media (FIG. 5D, lane 1). In contrast, transient expression of C99GVP led to robust Aβ production, as measured by IP/Western blot (FIG. 5D) and ELISAs that detect Aβ 40 and Aβ42 species, respectively ([…], top panel). […] Finally, we compared the Aβ-lowering potency of two inhibitors, using either C99GVP or the wild type APP as substrate. As determined by ELISA, the respective IC50 values for the two substrates are essentially identical (FIG. 5E).

[2] = target: T1, gamma secretase γ and ε cleavage of Fas-APPsw-DD (Homo sapiens, UniProt P49768); assay: Concurrent Aβ and AICD ELISA in Fas-APPsw-DD transfected 293 cells (APP γ versus ε cleavage); type: cell-based
T1 construct: active gamma secretase is endogenously and constitutively produced by the cell cultures; endogenous in cells; host or cells: HEK 293, transfected with Fas-APPsw-DD
Description: Polyclonal antibody AICD ELISA. HEK 293 cells were grown under standard conditions to ˜90% confluence. Cells were harvested, counted, and subsequently plated onto PDL-coated 60 mm dishes at 2×10^6 cells/dish in 5 mL media. The cells were allowed to settle onto the dishes for ˜4 hours. Transfection of various construct into cells was performed using standard techniques using Lipofectamine 2000™ (LF2K) (Invitrogen). Briefly, 2 μg plasmid DNA and 4 μL LF2K were diluted into separate 150 μL aliquots of Opti-MEM (Gibco), and allowed to stand for 10-15 minutes. The two aliquots were then mixed, and the DNA:Lipid complex allowed to form for about 20 minutes. The 300 μL DNA:Lipid complex was then added to the cells in 3 mL fresh media, and incubated overnight. In order to administer potential or known gamma secretase inhibitor compounds to cells, the transfected cells were harvested, replated into PDL-coated 24-well plates at 200,000 cells/well, and allowed to settle onto the plates for ˜4 hours. Cells were washed, and 500 μL fresh media added. […]
The term ‘non-selective’ in this instance refers to lack of selectivity for cell Aβ over Notch signaling (or GammaAPP over GammaNotch). […] The calculated γ/ε selectivity of the non-selective compounds (FIG. 11 and Table I) were 0.7, 1.1, 1.8 and 1.9 for DAPT, 44989, 46719 and the Merck compound, respectively. […]

[3] = target: T2, gamma secretase cleavage of C99GVP (AICD-GVP) (Homo sapiens, UniProt P49768); assay: Luciferase reporter gene assay, AICD-GVP transactivation from C99GVP in HEK293 cells; type: cell-based; details: C99-GVP, FIG. 5C
T2 construct: active gamma secretase is endogenously and constitutively produced by the cell cultures; endogenous in cells; host or cells: HEK 293, co-transfected with C99GVP, pG5E1B-luc and pCMV-β-gal
Description: Luciferase Reporter Gene Assay: Luciferase reporter assays were carried out 48 hr post-transfection. Cells seeded on 96-well plates (BD Biosciences) were washed once with PBS and harvested in 20 μl of reporter lysis buffer (Promega) per well. After adding 100 μl of luminescent substrate (Promega), the luciferase activity was measured with a MicroLumatPlus microplate luminometer (Berthold Technologies). The β-galactosidase activity was measured similarly, using a luminescent β-galactosidase substrate (BD Biosciences). As a control for transfection efficiency and general effect on transcription, the luciferase activity was normalized by measuring β-galactosidase activity on a duplicate plate. All measurements were done in triplicate and repeated at least three times.
Luciferase Assay. After confirming AICD-GVP generation in HEK cells, its ability to transactivate a luciferase reporter gene that contains Gal4 response elements in the upstream activation sequence (UAS) was tested. […] Some residual luciferase activity remained in the presence of excess gamma secretase inhibitors, even though identical treatment completely abolished AICD production as measured by Western blot (FIG. 5B). […]

## C99GVP-K28S: C99GVP point mutant K28S in the GSNK motif (SEQ ID NO:46) (LEDAEFRHDSGYEVHHQKLVFFAEDVGSNSGAIIGLMVGGVVIATVIVITLVML)
Gamma secretase; versus C99GVP
  drop of Aβ40: ~90%
  reduction in total Aβ: ~90%

## G25S: C99GVP point mutant G25S in the GSNK motif (SEQ ID NO:43) (LEDAEFRHDSGYEVHHQKLVFFAEDVSSNKGAIIGLMVGGVVIATVIVITLVML)
Gamma secretase
  effect on secreted Aβ / Aβ production compared with C99GVP control: no obvious effect

## C99GVP-APLP2*: APLP2 JMD swap chimera of C99GVP retaining the pre-TMD GSNK motif of APP (SEQ ID NO:19) (LEDAEFRHDSGLEEERESVGPLREDFGSNKGAIIGLMVGGVVIATVIVITLVML)
Gamma secretase
  effect on secreted Aβ / Aβ production compared with C99GVP control: indistinguishable from the C99GVP control

## N27S: C99GVP point mutant N27S in the GSNK motif (SEQ ID NO:45) (LEDAEFRHDSGYEVHHQKLVFFAEDVGSSKGAIIGLMVGGVVIATVIVITLVML)
Gamma secretase
  effect on secreted Aβ / Aβ production compared with C99GVP control: no obvious effect

## C99GVP-S26L: C99GVP point mutant S26L in the GSNK motif (SEQ ID NO:44) (LEDAEFRHDSGYEVHHQKLVFFAEDVGLNKGAIIGLMVGGVVIATVIVITLVML)
Gamma secretase; versus C99GVP
  drop of Aβ40: 52.7±2.3%
  reduction in total Aβ: 65.7±8.5%

## CC(C)C[C@H](NC(=O)[C@H](Cc1ccccc1)C[C@@H](O)[C@H](Cc1ccccc1)NC(=O)OC(C)(C)C)C(=O)N[C@@H](Cc1ccccc1)C(N)=O [L-685,458]
[1]; 5 μM, 24 h, FIG. 5D
  secreted Aβ (Aβ40 and Aβ42): block secreted Aβ
[1]; FIG. 5E
  Aβ potency (IC50) with C99GVP versus native APP substrate: equal Aβ potency
[2]
  γ/ε selectivity = IC50 AICD/IC50 Aβ: 1.9
[3]
  luciferase reporter transactivation by AICD-GVP: block luciferase reporter transactivation

B1: C99GVP-SLSS: C99GVP in which the GSNK motif was substituted with SLSS from APLP2 (SEQ ID NO:51) (protein)
chain: DAEFRHDSGYEVHHQKLVFFAEDVSLSSGAIIGLMVGGVVIATVIVITLVMLKKKKLLSSIEQACDICRLKKLKCSKEKPKCAKCLKNNWECRYSPKTKRSPLTRAHLTEVESRLERLEQLFLLIFPREDLDMILKMDSLQDIKALLTGLFVQDNVNKDAVTDRLASVETDMPLTLRQHRISATSSSEESSNKGQRQLTVSGIPGDLAPPTDVSLGDELHLDGEDVAMAHADALDDFDLDMLGDGDSPGPGFTPHDSAPYGALDMADFEFEQMFTDALGIDEYGGQYTSIHHGVVEVDAAVTPEERHLSKMQQNGYENPTYKFFEQMQN
Gamma secretase; versus C99GVP, FIGS. 9B and 9C
  reduction in secreted Aβ: ~97%
